# In patent publication US20080187492A1, “Drosophila Models For Diseases Affecting Learning and Memory” (priority 2004, published 2008):
# Experiments:
# [1] = test system: Rescue (dFMR1-3+wild type rescue fragment) flies; assay: Quality of naive courtship (progress to later courtship steps), Rescue flies; assay type: in vivo, Drosophila melanogaster; settings: 5 day old
# Protocol: In order to determine if MPEP can get into the Drosophila central nervous system (CNS) through feeding behavior, we mixed MPEP into the food at a concentration of 1,000 μg/ml (433.0 μM). Males were raised on CT food and then placed on either CT or M food. Naive males were placed in the training chamber for one hour with no female, and then placed with a virgin target female for a ten-minute interval. The naive courtship behavior was reduced by high MPEP concentration in Rescue (p<0.0001) and FS (p<0.0005) lines, and it was depressed to similar levels by high MPEP treatment in the Rescue and FS groups (FIG. 2A). […] FIG. 2B dissects the steps involved in naive courtship behavior. […] Lowering the dose of MPEP and examining naive courtship. We next decided to try a lower dose of MPEP to 200 μg/ml (86.6 μM) mixed into the food of the Drosophila. In these experiments flies were placed on either CT or M food in the larval stage and then placed on either CT of M food within four hours of eclosion. […] Therefore giving this drug in adulthood only is effective in enhancing naive courtship behavior. […] Further analysis of the quality of courtship that was performed by naive males was assessed by binning the number of males to advance to a particular phase of courtship for each genotype and pharmacologic treatment (FIG. 3B).
# [2] = test system: Rescue (dFMR1-3+wild type rescue fragment) flies; assay: Conditioned courtship: learning during training, Rescue flies; assay type: in vivo, Drosophila melanogaster; settings: MPEP 200 μg/ml in development, adulthood or both
# From the text: The role of dFMR1 in learning during training and immediate recall. The flies used were w1118 (the background stock from which the mutation was derived), dFMR1-3 (the mutation lacking dFMR1 expression), Rescue (dFMR1-3+wild type rescue fragment) and FS (frame shift, dFMR1-3+frame shifted rescue fragment) all from Dockendorff et al, 2002. To assess learning during training male flies are placed in a training chamber with a previously mated female for one hour. The amount of time the male spent courting in the initial ten-minute interval was compared to the amount of time the male spent courting the female target in the final ten-minute interval (FIG. 1). […] It is important to note that the level of courtship behavior towards the previously mated female is similar between the two mutant groups and the w1118 and Rescue groups. […] This is important to note, because without actively courting, the male fly cannot be trained (Tompkins et al. 1982; 1983).
# Learning during training. In order to assess learning during training, the male flies were placed in a training chamber with a previously mated female for one hour. The amount of time the male spent courting in the first ten-minute interval was compared to the amount of time the male spent courting the female target in the last ten-minute interval (FIG. 4A).
# Behavioral Training and Testing. […]
# [3] = test system: FS (dFMR1-3+frame shifted rescue fragment) flies; assay: Discrimination between virgin and previously mated females, FS flies; assay type: in vivo, Drosophila melanogaster; settings: 20-day-old; MPEP 200 μg/ml in development and adulthood (M-M)
# Protocol: (§1) Short-term memory. The model was further extended to encompass short-term memory at 60 minutes after training. After the one hour training session with a previously mated female, the female is removed and the male is placed in a holding chamber for 60 minutes, then subsequently placed in a testing chamber with a virgin female target to assess short-term memory (FIG. 4C). […] CT-CT FS flies court just as vigorously at 60 minutes after training as naive CT-CT FS flies. […] The FS groups that were treated with MPEP in development alone, adulthood alone or in both development and adulthood display experience dependent reduction of courtship activity at 60 minutes after training when compared to group matched naives M-M FS, p<0.0001, CT-M FS, p<0.0001 and M-CT FS, p<0.0001. […] Additionally, flies were tested for ability to discriminate between virgin and previously mated females (FIG. 4D).
# (§2) Flies were also tested for ability to discriminate between virgin and previously mated females in FIG. 9C.
# [4] = test system: Rescue (dFMR1-3+wild type rescue fragment) flies; assay: Discrimination between virgin and previously mated females, Rescue flies; assay type: in vivo, Drosophila melanogaster
# Protocol: as §1, §2
# [5] = test system: flies heterozygous for the Drosophila presenilin gene; assay: Learning during training in Drosophila model of Alzheimer's disease with reduced presenilin; assay type: in vivo; design: age dependent impairment in learning during training: dose or concentration left out as unconfirmed
# From the text: FIG. 10 is a graph showing the effect of MPEP on learning during training in a Drosophila model of Alzheimer's disease expressing reduced amounts of presenilin. All flies have reduced presenilin level. Black bars are 5 day old flies raised on kept on control food (N=18) which display learning during training (p<0.05). […] This impairment is prevented by treatment with MPEP.
# Using methods similar to those described in Examples 1 and 2, we evaluated the effect of MPEP on various aspects of learning and memory in a Drosophila model of Alzheimer's disease with reduced expression of presenilin.
# Flies in all three groups are heterozygous for the Drosophila presenilin gene. Each group has one wild type presenilin gene and one null presenilin gene, resulting from a deletion at the presenilin locus or a mutation at the presenilin locus. Learning during training was assayed in flies kept on control food until tested at five days of age, kept on control food until tested at 30 days of age or kept on control food for the first five days after eclosion then switched to food containing 200 μg/ml of MPEP until being moved back to control food the day before being tested at 30 days of age. […] This age-dependent deficit in learning during training is apparent in ten mutant presenilin Drosophila lines evaluated. In flies treated with MPEP, learning during training was restored at 30 days of age (p<0.05).
# [6] = test system: Rescue (dFMR1-3+wild type rescue fragment) flies; assay: Naive courtship behavior (courtship index toward virgin female), Rescue flies; assay type: in vivo, Drosophila melanogaster; settings: 20-day-old
compound,measurement,setting,value
"Cc1cccc(C#Cc2ccccc2)n1 [MPEP, 2-methyl-6-(phenylethynyl)pyridine]",quality of naive courtship,[1]; MPEP 200 μg/ml in adulthood only (CT-M),progressed to later phases of courtship to similar levels as all other groups
same,steps involved in naive courtship behavior,"[1]; MPEP 1,000 μg/ml in adulthood, relative to CT-CT Rescue",failed to progress to later steps in courtship behavior
same,learning during training (initial vs final courtship levels),[2]; 20-day-old,significant depression from the initial to final intervals
same,learning during training,[2]; 5 day old,does not adversely affect learning during training
same,time courting virgin female compared to previously mated female (discrimination),[3],spent significantly more time courting virgin female targets
same,time courting virgin female compared to previously mated female (discrimination),"[4]; 20-day-old, MPEP 200 μg/ml in development and adulthood (M-M)",spent significantly more time courting virgin female targets
same,ability to discriminate between virgin and previously mated females,"[4]; 5 day old, MPEP 200 μg/ml in adulthood only (CT-M)",spend similar amounts of time courting previously mated female targets and virgin female targets
same,age dependent impairment in learning during training,"[5]; 30 day old, food supplemented MPEP from day 5",prevented
same,learning during training,"[5]; 30 days of age, food containing 200 μg/ml of MPEP from day 5, p<0.05",restored
same,naive courtship activity,[6]; MPEP (86.6 μM) in adulthood only (CT-M),depressed relative to CT-CT Rescue flies
same,naive courtship activity,[6]; MPEP (86.6 μM) in development then M or CT food as adults,courted as vigorously as CT-CT Rescues flies
